These results are taken from patent US20190054054A1, “Methods reducing or preventing oxidation of high density lipoprotein (HDL)” (Amarin Pharmaceuticals Ireland Limited, priority 2017, published 2019).

“Also recorded” adds a separate entry of the source. Where only a bound is given, the exact number is not on record here.

Experiment [1] can be described thus: Lipid hydroperoxide (LOOH) formation in cholesterol-enriched model membranes under autoxidation (Example 3). The class given is biochemical. As to conditions: EPA to lipids 1:30, C/P mole ratio 0.6:1. Here is the method:
An experiment was conducted to test EPA in model membranes enriched with PUFAs and cholesterol at levels that reproduce disease or high CV-risk conditions (i.e., hypercholesterolemia). […] Levels of lipid hydroperoxides were also measured in cholesterol-enriched membrane prepared in the absence of EPA as a control. […] CHOD-iodide color reagent (stock) was prepared according to a procedure modified from El-Saadani et […], Goher […], Jurgens G. A spectrophotometric assay for lipid peroxides in serum lipoproteins using commercially available reagent. J. Lipid. […] Membrane samples consisting of DLPC±cholesterol were prepared as follows. […] To ensure spectrophotometric readings within the optimum absorbance range, sample volumes taken for measurement of lipid peroxide formation were adjusted for length of peroxidation and range between 100 and 10 μL. […] Absorbances were measured against a CHOD blank at 365 nm using a Beckman DU-640 spectrophotometer. The CHOD colorimetric assay is based on the oxidation of iodide (I^-) by lipid hydroperoxides (LOOH) and proceeds according to the following reaction scheme: […]3^- The quantity of triiodide anion (I3^-) liberated in this reaction is directly proportional to the amount of lipid hydroperoxides present in the membrane sample.

Experiment [2] in a line: Cholesterol domain formation by small angle x-ray diffraction (Example 3). The settings on record: PUFA-enriched model membranes, after autoxidation. Here is the method:
Cholesterol domain peak intensity was calculated from multiple small angle x-ray diffraction measurements, which are directly proportional to domain levels. […] EPA-treated membranes reduced LOOH levels by greater than 90% (728±30 μM) compared to untreated controls (p<0.001).

Experiment [3] has as its system sdLDL isolated from human plasma. In words: Copper-induced sdLDL oxidation for 1 hour (Example 12). The settings on record: 10.0 μM; sdLDL 200 μg/mL; copper-induced oxidation 1 hour. The class given is biochemical.
For experiment [4], the system named is rat renal glomerular endothelial cells. In words: NO and ONOO^− release ex vivo from rat glomerular endothelial cells exposed to oxLDL and high glucose (Example 13). As to conditions: oxLDL 11 mg/dL and glucose 300 mg/dL, treatment 1 hr at 10.0 μM. The class given is cell-based. The procedure:
Healthy male Wistar Kyoto (WKY) rats, aged 7-9 weeks and weighing 250±20 g, were obtained from inbred colonies (National Institutes of Health, Bethesda, Md.). Animals were housed in a controlled environment that provided food and water ad libitum prior to the study. […] Animals were sacrificed and tissue samples obtained immediately for experimentation. All procedures were conducted in accordance with standard Institutional Animal Care and Use Committee guidelines and conformed to the Guide for the Care and Use of Laboratory Animals published by the US National Institutes of Health.
EPA and DHA were purchased from Sigma-Aldrich (St. Louis, Mo.) and solubilized in ethanol to 1.0 mM under nitrogen atmosphere. […] The calcium ionophore (Cal), A23187, was purchased from Sigma-Aldrich and prepared in aqueous buffer to 1.0 mM. All test compounds were further diluted in ethanol or aqueous buffer as needed.
Venous blood from healthy normolipidemic volunteers was collected into Na-EDTA (1 mg/mL blood) vacuum tubes after a 12-hour fast. […] The LDL fraction was dialyzed for 96 hours against PBS containing 0.3 mM EDTA and stored at 4° C. until experimental use.
LDL was oxidized according to the methods of Huber et al. 16 Briefly, the purified LDL fraction was dialyzed against Tris/NaCl Buffer (50 mM Tris in 0.15 M NaCl, pH 8.0) to remove EDTA. Additional buffer was added to adjust the protein concentration to 30 mg/mL. LDL oxidation was initiated with 20 μM CuSO4 and monitored spectrophotometrically (234 nm) over a period of 24 hours until complete. The oxLDL was then dialyzed at 4° C. with 4 L Tris buffer, filtered with a 0.22 µm filter, and stored under nitrogen at 4° C.
Immediately after sacrificing the rats, kidneys were removed, cut into […] sections and transferred to a separate organ chamber containing Dulbecco's phosphate buffered saline ([…]) and […] glucose at pH 7.4.
Concurrent measurements of NO and ONOO^− were performed on intact glomerular (cortical zone) endothelial cells using tandem electrochemical nanosensors, as previously described (FIG. 45).
The NO/ONOO^− nanosensor was positioned near the surface of the endothelial cells using a computer-controlled M3301 micromanipulator (x-y-z resolution of 0.2 μm) and microscope (both from World Precision Instruments, Berlin, Germany) fitted with a CD camera. Each analyte was measured from amperograms and standard calibration curves collected under maximum current. […] After establishing a background current, maximal NO and ONOO^− release was induced by injecting Cal into the organ chamber using a nanoinjector (World Precision Instruments, Berlin Germany). Changes in current (proportional to the molar concentrations of NO or ONOO^− released) were monitored continuously immediately following Cal stimulation.
Data are presented as mean+standard deviation (SD) for (N) separate samples or experiments. Differences between groups were analyzed using the unpaired, two-tailed Student's t-test (for comparisons between only two groups) or ANOVA followed by Student-Newman-Keuls multiple comparisons post hoc analysis (for comparisons between three or more groups). Only differences with probability values less than 0.05 were considered significant.

The conditions of experiment [5]: patients; clinical studies by others; cited from earlier work.

Regarding `CC/C=C\C/C=C\C/C=C\C/C=C\C/C=C\CCCC(=O)O` [EPA, cis-5,8,11,14,17-eicosapentaenoic acid], the LOOH level in experiment [1] (after autoxidation 72 hours) stood at 728 ± 30 µM. In experiment [1] (autoxidation 37° C., 72 hours), the “reduction of LOOH levels compared to untreated controls” value is “greater than 90%”. Also, in experiment [2], the “cholesterol crystalline domain formation” value was “inhibits cholesterol crystalline domain formation”. In addition, the “reduction of sdLDL oxidation compared to vehicle treatment alone” value in experiment [3] is more than 90%. Further, the “NO/ONOO^− Ratio” value in experiment [4] turned out to be 1.08. For the same compound, in experiment [4] (versus vehicle), the “increase in NO release” value is 205%, the “increase of the NO/ONOO^− ratio” value was “more than 4 fold” and the “reduction of ONOO^− release” value stood at 27%. Moreover, in experiment [5], the “triglycerides and oxidized LDL, Lp-PLA2, hsCRP as compared to placebo” value was “significant reductions in levels of oxidized LDL, Lp-PLA2, and hsCRP; also recorded: significant reductions in triglycerides along with reduced levels of markers of inflammation”.
